Laboratory results taken from patent US20060229433A1, “Modified antiviral peptides with increased activity and cell membrane affinity” (priority 2003, published 2006).
Square brackets hold non-standard residues; d marks the D form. Peptide text beside a SMILES is read from it. Ava = NCCCCC(=O)O

Key:
[1] = test system: HIV-1 89.6 subtype B dualtropic (X4R5); conditions: PBMC, Table 5
[2] = test system: HIV-1 NL 4-3; experiment: Infection of human peripheral blood lymphocytes (PBL) with NL 4-3 strain, p24 ELISA; format: cell-based
Protocol: Peripheral blood lymphocytes from an HIV-1 negative donor were grown as described earlier, maintained in RPMI 1640 with ultraglutamine, supplemented with IL2 (20 μg/ml), penicillin (100 U/ml), streptomycin (100 μg/ml), and 10% heat-inactivated fetal calf serum. Cells were stimulated three days in the medium supplemented with phytohemagglutinin (20 U/ml PHA P, DIFCO, Detroit Mich.).
Samples of 10^6/100 μL PBL cells were preincubated in 96-well microtiter plates in culture medium containing various concentrations of peptides. After a 1 h treatment at 37° C., 100 μl of diluted viral solution of HIV-1 was added. The cells were exposed to the virus for 1 h at 37° C. at a multiplicity of infection of 1000 TCID50 per ml. The cells were washed three times and cultured at […] of medium with the treatment in 24-well plates incubated at 37° in culture medium with the peptides in 5% CO2. The treatment was permanent before virus adsorption, during virus adsorption and after infection. The PBL culture medium was replaced every 3-4 days during three weeks always in the presence of peptide. The cell viability was assessed by cell counts and trypan-blue exclusion assay. The viral production in the culture supernatant was quantified by p24 ELISA test, as described earlier. All the experiments have been done in blind-tests. Tests have been done in duplicate.

[3] = test system: HIV-1 NL 4-3; experiment: HIV-1 infection of C8166 cells (syncytia formation, p24 ELISA) with HIV-1 NL 4-3; format: cell-based; parameters: key: ++, +, (+), (+)− and − represent decreasing numbers of syncitia formed.; ++, +, (+), (+)− and − represent decreasing numbers of syncitia formed.; ++, +, (+), (+)− and − represent decreasing numbers of syncitia formed.; ++, +, (+), (+)− and − represent decreasing numbers of syncitia formed.; ++, +, (+), (+)− and − represent decreasing numbers of syncitia formed; conditions: Table 2
Protocol: HIV-1 NL 4-3 isolate (Adachi et al., 1986; Barré-Sinoussi et al., 1983) and highly cytopathic Zairian HIV-1 NDK isolate (Ellrodt et al., 1984) was propagated in permissive CEM cells (Nara et al., 1987). Uninfected CEM and C8166 (Salahuddin et al., 1983) were maintained in RPMI 1640 (R10) with ultraglutamine (cambrex, Vervier, Belgium), penicillin (100 U/ml), streptomycin (100 μg/ml), and 10% heat-inactivated fetal calf serum (Cambrex).
Samples of 3×10^5/100 μL C8166 cells were preincubated in 96-well microtiter plates in culture medium containing various concentrations of peptide. After a 1 h treatment at 37° C., 100 μl of diluted viral solution of HIV-1 was added. The cells were exposed to the virus for 1 h at 37° C. at a multiplicity of infection of 1000 TCID50 per ml. The cells were washed three times and cultured at 3×10^5/ml of R10 with the treatment in 24-well plates incubated at 37° C. C8166 culture medium was replaced at Day-4 post-infection. The treatment was permanent before virus adsorption, during virus adsorption and after infection. Assays on C8166 cells have been performed at least twice and in duplicate. Toxicity was evaluated by daily cell count and trypan-blue exclusion assay. Infection of C8166 T-cells with HIV-1 was assessed by virus-induced cytopathic effects (syncytia formation) and by quantification of cell free p24 viral protein in the culture supernatants. Measurements of HIV-1 p24^gag concentration in the culture supernatants were achieved by ELISA (ALLIANCE® HIV-1 p24 kit, Perkin Elmer, life sciences, USA).

Structure (SMILES) | IC50 [1] | IC100 [1] | IC50 ([2]; PBL, NL 4-3 strain, Table 4) | IC100 ([2]; PBL, NL 4-3 strain, Table 4) | IC100 ([2]; text b43 on PBL results) | Day 4 syncitia formed ([3]; 1 μM) | Day 5 syncitia formed ([3]; 1 μM) | Day 6 syncitia formed ([3]; 1 μM) | Day 7 syncitia formed ([3]; 1 μM) | Day 4 syncitia formed ([3]; 5 μM) | Day 5 syncitia formed ([3]; 5 μM) | Day 6 syncitia formed ([3]; 5 μM) | Day 7 syncitia formed ([3]; 5 μM) | IC100 ([2]; on PBL)
C[C@H](NC(=O)[C@H](CCCNC(=N)N)NC(=O)CNC(=O)[C@@H]1CCCN1C(=O)CN)C(=O)N[C@@H](Cc1ccccc1)C(=O)NCCCCC(=O)O [SPC3 monomer valeric acid, GPGRAF-NHCH2CH2CH2CH2COOH] (H-GPGRAF[Ava]-OH; N-terminus assumed) | 10 nM | 0.5 µM | 20 nM | 0.1 µM | 0.1 µM |  |  |  |  |  |  |  |  | 
C[C@H](NC(=O)[C@H](CCCNC(=N)N)NC(=O)CNC(=O)[C@@H]1CCCN1C(=O)CN)C(=O)N[C@@H](Cc1ccccc1)C(=O)NCCCC[C@H](NC(=O)[C@H](Cc1ccccc1)NC(=O)[C@H](C)NC(=O)[C@H](CCCNC(=N)N)NC(=O)CNC(=O)[C@@H]1CCCN1C(=O)CN)C(=O)NCCCC[C@H](NC(=O)[C@H](CCCCNC(=O)[C@H](Cc1ccccc1)NC(=O)[C@H](C)NC(=O)[C@H](CCCNC(=N)N)NC(=O)CNC(=O)[C@@H]1CCCN1C(=O)CN)NC(=O)[C@H](Cc1ccccc1)NC(=O)[C@H](C)NC(=O)[C@H](CCCNC(=N)N)NC(=O)CNC(=O)[C@@H]1CCCN1C(=O)CN)C(=O)NCCCC[C@H](NC(=O)[C@H](CCCCNC(=O)[C@H](CCCCNC(=O)[C@H](Cc1ccccc1)NC(=O)[C@H](C)NC(=O)[C@H](CCCNC(=N)N)NC(=O)CNC(=O)[C@@H]1CCCN1C(=O)CN)NC(=O)[C@H](Cc1ccccc1)NC(=O)[C@H](C)NC(=O)[C@H](CCCNC(=N)N)NC(=O)CNC(=O)[C@@H]1CCCN1C(=O)CN)NC(=O)[C@H](CCCCNC(=O)[C@H](Cc1ccccc1)NC(=O)[C@H](C)NC(=O)[C@H](CCCNC(=N)N)NC(=O)CNC(=O)[C@@H]1CCCN1C(=O)CN)NC(=O)[C@H](Cc1ccccc1)NC(=O)[C@H](C)NC(=O)[C@H](CCCNC(=N)N)NC(=O)CNC(=O)[C@@H]1CCCN1C(=O)CN)C(=O)NCCC(=O)O [SPC3, (GPGRAF)8-K4-K2-K-βA-OH, reference compound] | 60 nM | 0.5 µM | 10 nM | 0.1 µM | 2 µM | (+) | + | ++ | ++ | − | (+) | + | ++ | 2 µM
